ChEMBL document CHEMBL3885881, “DrugMatrix”

Species on record: Rattus norvegicus
Test: DrugMatrix - Regimen: Daily Repeat
Type: toxicity, organism-based, Sprague-Dawley
Set-up: regimen Daily Repeat, gender Male, age 6-8 weeks
Settings: in vivo, po, 20 mg/kg, route oral GAVAGE, dose level High, vehicle 100 % WATER; for BASOPHIL / EOSINOPHIL / ERYTHROCYTE COUNT / HEMATOCRIT / HEMOGLOBIN / LEUKOCYTE COUNT / LYMPHOCYTE / MEAN CORPUSCULAR HEMOGLOBIN / MEAN CORPUSCULAR HEMOGLOBIN CONCENTRATION / MEAN CORPUSCULAR VOLUME / MONOCYTE / NEUTROPHIL / PLATELET COUNT: tissue Blood; for ALANINE AMINOTRANSFERASE / ALBUMIN / ALKALINE PHOSPHATASE / ASPARTATE AMINOTRANSFERASE / BLOOD UREA NITROGEN / CARBON DIOXIDE / CHLORIDE / CHOLESTEROL / CREATINE PHOSPHOKINASE / CREATININE / GLUCOSE / LACTATE DEHYDROGENASE / LIPASE / PHOSPHORUS / POTASSIUM / SODIUM / TOTAL BILIRUBIN / TOTAL PROTEIN / URIC ACID: tissue Plasma

Compound: C=CC=O [ACROLEIN]
- BASOPHIL (72 h, time 3 day): 0.17%
- EOSINOPHIL (72 h, time 3 day): 1.23%
- ERYTHROCYTE COUNT (72 h, time 3 day): 6.79 x10E6/uL
- HEMATOCRIT (72 h, time 3 day): 44.43%
- HEMOGLOBIN (72 h, time 3 day): 14.33 G/DL
- LEUKOCYTE COUNT (72 h, time 3 day): 13.23 x10E3/uL
- LYMPHOCYTE (72 h, time 3 day): 50.33%
- MEAN CORPUSCULAR HEMOGLOBIN (72 h, time 3 day): 21.17 pg
- MEAN CORPUSCULAR HEMOGLOBIN CONCENTRATION (72 h, time 3 day): 32.27 G/DL
- MEAN CORPUSCULAR VOLUME (72 h, time 3 day): 65.47 fL
- MONOCYTE (72 h, time 3 day): 5.93%
- NEUTROPHIL (72 h, time 3 day): 40.03%
- PLATELET COUNT (72 h, time 3 day): 1336 x10E3/uL
- ALANINE AMINOTRANSFERASE (72 h, time 3 day): 33.67 u/L
- ALBUMIN (72 h, time 3 day): 3.47 G/DL
- ALKALINE PHOSPHATASE (72 h, time 3 day): 159 u/L
- ASPARTATE AMINOTRANSFERASE (72 h, time 3 day): 72.67 u/L
- BLOOD UREA NITROGEN (72 h, time 3 day): 13 mg/dL
- CARBON DIOXIDE (72 h, time 3 day): 27.67 mmol/L
- CHLORIDE (72 h, time 3 day): 105.67 MEQ/L
- CHOLESTEROL (72 h, time 3 day): 122.33 mg/dL
- CREATINE PHOSPHOKINASE (72 h, time 3 day): 216.67 u/L
- CREATININE (72 h, time 3 day): 0.43 mg/dL
- GLUCOSE (72 h, time 3 day): 151.67 mg/dL
- LACTATE DEHYDROGENASE (72 h, time 3 day): 35 u/L
- LIPASE (72 h, time 3 day): 24.33 u/L
- PHOSPHORUS (72 h, time 3 day): 11.6 mg/dL
- POTASSIUM (72 h, time 3 day): 5.87 MEQ/L
- SODIUM (72 h, time 3 day): 148 MEQ/L
- TOTAL BILIRUBIN (72 h, time 3 day): 0.27 mg/dL
- TOTAL PROTEIN (72 h, time 3 day): 5.43 G/DL
- URIC ACID (72 h, time 3 day): 1.27 mg/dL
- BASOPHIL (120 h, time 5 day): 0.23%
- EOSINOPHIL (120 h, time 5 day): 0.37%
- ERYTHROCYTE COUNT (120 h, time 5 day): 7 x10E6/uL
- HEMATOCRIT (120 h, time 5 day): 45.17%
- HEMOGLOBIN (120 h, time 5 day): 14.17 G/DL
- LEUKOCYTE COUNT (120 h, time 5 day): 18.4 x10E3/uL
- LYMPHOCYTE (120 h, time 5 day): 56.63%
- MEAN CORPUSCULAR HEMOGLOBIN (120 h, time 5 day): 20.2 pg
- MEAN CORPUSCULAR HEMOGLOBIN CONCENTRATION (120 h, time 5 day): 31.37 G/DL
- MEAN CORPUSCULAR VOLUME (120 h, time 5 day): 64.53 fL
- MONOCYTE (120 h, time 5 day): 5.23%
- NEUTROPHIL (120 h, time 5 day): 35.47%
- PLATELET COUNT (120 h, time 5 day): 1464.67 x10E3/uL
- ALANINE AMINOTRANSFERASE (120 h, time 5 day): 36.33 u/L
- ALBUMIN (120 h, time 5 day): 3.33 G/DL
- ALKALINE PHOSPHATASE (120 h, time 5 day): 202.33 u/L
- ASPARTATE AMINOTRANSFERASE (120 h, time 5 day): 71 u/L
- BLOOD UREA NITROGEN (120 h, time 5 day): 15 mg/dL
- CARBON DIOXIDE (120 h, time 5 day): 23.67 mmol/L
- CHLORIDE (120 h, time 5 day): 110.33 MEQ/L
- CHOLESTEROL (120 h, time 5 day): 106 mg/dL
- CREATINE PHOSPHOKINASE (120 h, time 5 day): 207.67 u/L
- CREATININE (120 h, time 5 day): 0.27 mg/dL
- GLUCOSE (120 h, time 5 day): 140 mg/dL
- LACTATE DEHYDROGENASE (120 h, time 5 day): 58 u/L
- LIPASE (120 h, time 5 day): 40.33 u/L
- PHOSPHORUS (120 h, time 5 day): 11.4 mg/dL
- POTASSIUM (120 h, time 5 day): 5.6 MEQ/L
- SODIUM (120 h, time 5 day): 152.33 MEQ/L
- TOTAL BILIRUBIN (120 h, time 5 day): 0.23 mg/dL
- TOTAL PROTEIN (120 h, time 5 day): 5.37 G/DL
- URIC ACID (120 h, time 5 day): 1.73 mg/dL
- BASOPHIL ([…], time 14 day): 0.9%
- EOSINOPHIL ([…], time 14 day): 0.5%
- ERYTHROCYTE COUNT ([…], time 14 day): 7.34 x10E6/uL
- HEMATOCRIT ([…], time 14 day): 43.1%
- HEMOGLOBIN ([…], time 14 day): 14.5 G/DL
- LEUKOCYTE COUNT ([…], time 14 day): 33.86 x10E3/uL
- LYMPHOCYTE ([…], time 14 day): 32.7%
- MEAN CORPUSCULAR HEMOGLOBIN ([…], time 14 day): 19.8 pg
- MEAN CORPUSCULAR HEMOGLOBIN CONCENTRATION ([…], time 14 day): 33.6 G/DL
- MEAN CORPUSCULAR VOLUME ([…], time 14 day): 58.8 fL
- MONOCYTE ([…], time 14 day): 5.2%
- NEUTROPHIL ([…], time 14 day): 59.1%
- PLATELET COUNT ([…], time 14 day): 2095 x10E3/uL
- ALANINE AMINOTRANSFERASE ([…], time 14 day): 40 u/L
- ALBUMIN ([…], time 14 day): 3.6 G/DL
- ALKALINE PHOSPHATASE ([…], time 14 day): 220 u/L
- ASPARTATE AMINOTRANSFERASE ([…], time 14 day): 68 u/L
- BLOOD UREA NITROGEN ([…], time 14 day): 13 mg/dL
- CARBON DIOXIDE ([…], time 14 day): 31 mmol/L
- CHLORIDE ([…], time 14 day): 101 MEQ/L
- CHOLESTEROL ([…], time 14 day): 116 mg/dL
- CREATINE PHOSPHOKINASE ([…], time 14 day): 267 u/L
- CREATININE ([…], time 14 day): 0.4 mg/dL
- GLUCOSE ([…], time 14 day): 145 mg/dL
- LACTATE DEHYDROGENASE ([…], time 14 day): 109 u/L
- LIPASE ([…], time 14 day): 33 u/L
- PHOSPHORUS ([…], time 14 day): 9.2 mg/dL
- POTASSIUM ([…], time 14 day): 6.6 MEQ/L
- SODIUM ([…], time 14 day): 147 MEQ/L
- TOTAL BILIRUBIN ([…], time 14 day): 0.5 mg/dL
- TOTAL PROTEIN ([…], time 14 day): 5.7 G/DL
- URIC ACID ([…], time 14 day): 2.5 mg/dL
